Source: patent US11999701B1, “4,5-bis(4-chlorophenyl)-2-phenyl-1H-imidazol-1-yl as an antimicrobial compound” (KING FAISAL UNIVERSITY, priority 2023, dated 2024)

Key:
Type in all cases: cell-based
[1] = system: Bacillus cereus; experiment: Agar plate disc-diffusion, antibacterial activity
Method: (§1) The agar plate disc-diffusion method was applied. […] The discs were then placed onto the surface of agar plates (nutrient agar for bacteria and Sabouraud's dextrose agar for fungi) seeded with the test organism. Each plate contained 15 mL of the agar medium, previously seeded with 0.2 mL of the broth culture of each organism pregrown for 18 hours. The plates were incubated at 37 °C for 48 h, and 72 h for fungi. The inhibition zones were measured in mm. Discs impregnated with DMSO were used as a control, and its inhibition zone was subtracted from the tested compound actual inhibition zone.

[2] = system: Escherichia coli; experiment: Agar plate disc-diffusion, antibacterial activity
Method: as §1

[3] = system: Pseudomonas aeruginosa; experiment: Agar plate disc-diffusion, antibacterial activity
Method: as §1

[4] = system: Staphylococcus aureus; experiment: Agar plate disc-diffusion, antibacterial activity
Method: as §1

[5] = system: Aspergillus flavus; experiment: Agar plate disc-diffusion, antifungal activity
Method: as §1

[6] = system: Chrysosporium keratinophilum; experiment: Agar plate disc-diffusion, antifungal activity
Method: as §1

[7] = system: different microbes; experiment: Antimicrobial activity, overall statement; conditions: against different microbes (bacteria and fungi of Tables 1 and 2)
Method: The agar plate disc-diffusion method was applied. Sterilized filter papers (6 mm in diameter) were wetted with 10 μL of a solution of 4,5-bis(4-chlorophenyl)-2-phenyl-1H-imidazole (IV) to be tested, containing 10 mg/mL in DMSO, and the discs were allowed to air dry. The discs were then placed onto the surface of agar plates (nutrient agar for bacteria and Sabouraud's dextrose agar for fungi) seeded with the test organism. Each plate contained 15 mL of the agar medium, previously seeded with 0.2 mL of the broth culture of each organism pregrown for 18 hours. The plates were incubated at 37 °C for 48 h, and 72 h for fungi. The inhibition zones were measured in mm. Discs impregnated with DMSO were used as a control, and its inhibition zone was subtracted from the tested compound actual inhibition zone.

[8] = A = concentration of comp. = 10,000 μL
[9] = B = concentration of comp. = 30,000 μL
[10] = C = concentration of comp. = 50,000 μL

Clc1ccc(-c2nc(-c3ccccc3)[nH]c2-c2ccc(Cl)cc2)cc1 [IV, 4,5-bis(4-chlorophenyl)-2-phenyl-1H-imidazole]
inhibition zone [1, 8]: 22 mm | inhibition zone [1, 9]: 24 mm | inhibition zone [1, 10]: 36 mm | inhibition zone [2, 8]: 27 mm | inhibition zone [2, 9]: 34 mm | inhibition zone [2, 10]: 52 mm | inhibition zone [3, 8]: 25 mm | inhibition zone [3, 9]: 28 mm | inhibition zone [3, 10]: 46 mm | inhibition zone [4, 8]: 20 mm | inhibition zone [4, 9]: 24 mm | inhibition zone [4, 10]: 33 mm | inhibition zone [5, 8]: 22 mm | inhibition zone [5, 9]: 25 mm | inhibition zone [5, 10]: 32 mm | inhibition zone [6, 8]: 26 mm | inhibition zone [6, 9]: 28 mm | inhibition zone [6, 10]: 46 mm | antimicrobial activities [7]: excellent antimicrobial activities
